Measured values from patent US7928099B2, “Pyrimido [4,5-D] azepine derivatives as 5-HT2c agonists” (Pfizer Inc, priority 2007, dated 2011).
pEC50, pKi: −log10 of the molar value. Counter-ions that a name gives are not always drawn.

Key:
[1] = molecular target: T1, human recombinant 5-HT2c receptor (Homo sapiens, UniProt P28335); test: FLIPR fluorescent Ca2+ mobilisation agonist assay in CHO K1 cells (Method 1); assay type: cell-based; conditions: for Emax: CHO-K1, efficacy; for pEC50: agonist affinity, FLIPR
T1 construct: expressed in transfected cells; host or cells: CHO K1 (Chinese hamster ovary), stably transfected
T1 sequence (P28335 33-458): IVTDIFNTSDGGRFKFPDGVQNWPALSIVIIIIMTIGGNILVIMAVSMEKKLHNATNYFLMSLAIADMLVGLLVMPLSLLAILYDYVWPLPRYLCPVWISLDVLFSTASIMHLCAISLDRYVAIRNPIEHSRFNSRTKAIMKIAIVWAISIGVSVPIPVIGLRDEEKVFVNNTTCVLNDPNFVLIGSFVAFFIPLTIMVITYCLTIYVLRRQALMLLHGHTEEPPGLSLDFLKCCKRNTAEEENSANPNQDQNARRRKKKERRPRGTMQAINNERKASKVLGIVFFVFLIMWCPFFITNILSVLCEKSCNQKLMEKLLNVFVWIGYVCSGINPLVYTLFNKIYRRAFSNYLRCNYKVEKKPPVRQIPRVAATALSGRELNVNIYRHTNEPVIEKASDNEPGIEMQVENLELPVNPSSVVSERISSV
Description: (§1) The compounds of the invention were evaluated for biological activity by measuring the agonist affinity (EC50) and efficacy (Emax) at the human recombinant 5-HT2c receptor expressed in CHO K1 cells, using a fluorescent based Ca^2+ mobilisation assay format compatible with FLIPR technology (Method 1). Additionally, the binding activity of a compound was determined by measuring its affinity for the human recombinant 5-HT2c receptor membranes from Swiss 3T3 cells (Method 2).
The agonist affinity of the compounds were tested by measuring their ability to induce a fluorescent based Ca^2+ mobilization signal in a FLIPR assay using CHO K1 cells expressing recombinant human 5-HT2C receptor. Both agonist affinity (EC50) and efficacy (Emax) were determined.
Chinese hamster ovary cells (CHO K1) stably transfected with the 5-HT2c receptor were cultured under standard cell culture techniques. Specifically, cells were grown at 37° C. and 5% CO2 in Dulbecco's Modified Eagle's Medium (DMEM) culture media supplemented with 10% dialysed foetal calf serum (FCS), 1% non-essential amino acids, 1 mM sodium pyruvate, 800 μg/mL geneticin and 50 μg/ml zeocin. Cells were harvested for passaging and storage using trypsin-EDTA, centrifugation and resuspension in culture medium. Cells were grown to 60-80% confluency, harvested and adjusted to 15-20×10^6 cells/ml/vial in medium/10% DMSO and stored long-term at −80° C.
Cells were seeded into black-walled clear-bottomed 384 well plates 24 h before use. Frozen cells were defrosted in a 37° C. water bath and immediately transferred into 1 mL/vial 37° C. culture medium, diluted to 10 ml and DMSO removed by centrifugation. The cells were resuspended in 15 ml/vial of cell culture medium, counted and adjusted to give 500,000 cells/mL (10,000 cells/well). […] of cell suspension was added to the 384 well plates which were then incubated overnight at 37° C.
The maximum agonist response was determined with 5-HT at a final assay concentration of 10 μM in the diluent above. The minimum response was determined with Dulbeccos PBS (+CaCl2, +MgCl2) with 0.9% DMSO and 0.05% pluronic F-127. Test compounds, maximum and minimum controls were added to a 384 well polypropylene plate.
The FLIPR calcium assay reagent was diluted with assay buffer (Hank's Balanced Salt Solution (HBSS))/20 mM HEPES and 2.5 mM probenecid (diluted with 1M Sodium hydroxide and DPBS (+CaCl2, +MgCl2)).
20 μl/well FLIPR calcium assay reagent was added to the cell plates, which were incubated for 1 h at 37° C. Cell plates and compound plates were then transferred onto the FLIPR. The assay was run using the appropriate FLIPR program, which initiates the reaction by transferring 15 μL compound into the corresponding, well of the cell plate.
The statistical parameter exported from each well was the max peak height of the response.

[2] = molecular target: T1, human recombinant 5-HT2c receptor; test: 3H-meselurgine radioligand binding SPA, membranes from Swiss 3T3 cells (Method 2); conditions: 3H-meselurgine displacement, Cheng-Prusoff; Swiss 3T3 membranes; read-out: Binding Affinity Ki
Description: as §1
The compounds were tested for biological activity by their ability to inhibit binding of the radioligand ^3H-meselurgine at the human recombinant 5-HT2C receptor expressed in the Swiss 3T3 cells using a scintillation proximity assay (SPA) technology.
Swiss 3T3 stably transfected with the 5-HT2C receptor were cultured under standard cell culture techniques. Specifically, cells were grown in 50 mL growth medium (Dulbecco's Modified Eagle's Medium (DMEM) culture media supplemented with 10% dialysed foetal calf serum (FCS), 2 mM penicillin/streptomycin and 20 μg/mL geneticin) in 225 cm^2 flasks at 37° C. and 5% CO2. Cells were grown to 60-80% confluency, harvested using trypsin-EDTA and pelleted by centrifugation for long-term storage at −80° C.
Cell pellets were thawed on ice and resuspended in 3 mL of membrane preparation buffer (see Media and Buffers for composition) per 1 mL of packed cell. The suspension was homogenised on ice for several 5 s intervals using a hand-held homogeniser. The homogenate was then centrifuged at 1,000 rpm for 5 min at 4° C.
The supernatants were then collected and retained. Initial cell & nuclei pellets (P1) were subsequently rehomogenised and centrifuged using the conditions cited above, and the supernatants collected and pooled with those retained from the first spin.
The pooled supernatants were centrifuged at 19,500 rpm for 45 min at 4° C., and the supernatants discarded. The pellets (P2) were then resuspended in 3 mL of membrane preparation buffer per 1 mL of the original packed cell volume. Protein concentrations were subsequently measured and the membrane suspension was finally frozen in aliquots of set volume and stored at −80° C. prior to use in assays.
For each batch of membrane used, optimal concentrations of Polylysine YSi SPA beads and membrane were determined. The assay free radioligand concentration was expressed as a percentage of the total free radioligand concentration to give an estimate of the radioligand depletion.
The affinity of ^3H-meselurgine for the human recombinant 5-HT2c receptor was determined for each membrane batch at the selected protein and bead concentrations. […] The mean KD for ^3H-meselurgine at a batch of membranes was determined from data from a minimum of three separate assays.
The required amount of membrane, was thawed on ice and added to a pre-determined volume of bead suspension in 50 mM HEPES buffer, pH 7.4. The beads were then pre-coupled by incubating the predetermined protein quantity per mg of bead on a roller 4° C. for 1 h. Subsequently, the bead/membrane complex was spun down at 1000 rpm for 5 min. The resulting pellet was resuspended in assay buffer at the specific concentration required for the final assay.
An aliquot of [^3H]-meselurgine stock was diluted in binding assay buffer to give a pre-determined final assay concentration less than the equilibrium dissociation constant (KD) value.
All test compounds were prepared at a concentration of 4 mM in 100% dimethyl sulphoxide (DMSO) from dry samples.
The same volume of assay buffer was added to specific wells of the plate to enable subsequent measurement of total radioligand binding. Furthermore, 5 μL of Mianserin at 25 μM (2.5 μM final assay concentration was subsequently added to pre-determined wells to determine non-specific binding (NSB).

[3] = percentage of mean maximal response to 10 μM 5-HT

SMILES | Emax [1, 3] | pEC50 [1] | pKi [2] | Emax % ([1]; efficacy, percentage of mean maximal response to 10 μM 5-HT)
CN(C)c1nc(N(C)Cc2ccccc2)nc2c1CCNCC2 [Example 14, N-2-benzyl-N-2,N-4,N-4-trimethyl-6,7,8,9-tetrahydro-5H-pyrimido[4,5,d]azepin-2-amine] | 50.8% | 6.55 | 6.84 | –
CN(Cc1ccccc1)c1nc2c(c(N3CCOCC3)n1)CCNCC2 [Example 15, N-benzyl-N-methyl-4-morpholin-4-yl-6,7,8,9-tetrahydro-5H-pyrimido[4,5,d]azepin-2-amine] | – | 6.69 | 6.74 | 64.10%
COc1nc(N(C)Cc2ccccc2)nc2c1CCNCC2 [Example 16, N-benzyl-4-methoxy-N-methyl-6,7,8,9-tetrahydro-5H-pyrimido[4,5,d]azepin-2-amine] | 41.4% | 6.28 | 7.26 | –
OC1CCCN(c2nc(Cc3ccccc3)nc3c2CCNCC3)C1 (stereo not drawn) [Example 18, 1-(2-benzyl-6,7,8,9-tetrahydro-5H-pyrimido[4,5-d]azepin-4-yl)piperidin-3-ol hydrochloride] | 51.3% | 6.25 | 6.61 | –
CO[C@H]1CCN(c2nc(Cc3ccccc3)nc3c2CCNCC3)C1 [Example 26, 2-benzyl-4-[(3S)-3-methoxypyrrolidin-1-yl]-6,7,8,9-tetrahydro-5H-pyrimido[4,5-d]azepine hydrochloride] | 60.9% | 6.38 | 6.64 | –
c1ccc(Cc2nc3c(c(N4CCCCC4)n2)CCNCC3)cc1 [Example 29, 2-benzyl-4-piperidin-1-yl-6,7,8,9-tetrahydro-5H-pyrimido[4,5-d]azepine hydrochloride] | 37.7% | 6.02 | 6.75 | –
CC1CCCN(c2nc(Cc3ccccc3)nc3c2CCNCC3)C1 (stereo not drawn) [Example 30, 2-benzyl-4-(3-methylpiperidin-1-yl)-6,7,8,9-tetrahydro-5H-pyrimido[4,5-d]azepine hydrochloride] | 54.8% | 6.01 | 7.00 | –
OC1CCN(c2nc(Cc3ccccc3)nc3c2CCNCC3)CC1 [Example 38, 1-(2-benzyl-6,7,8,9-tetrahydro-5H-pyrimido[4,5-d]azepin-4-yl)piperidin-4-ol hydrochloride] | 66% | 6.47 | 6.29 | –
N#CC1CCCN(c2nc(Cc3ccccc3)nc3c2CCNCC3)C1 (stereo not drawn) [Example 40, 1-(2-benzyl-6,7,8,9-tetrahydro-5H-pyrimido[4,5-d]azepin-4-yl)piperidine-3-carbonitrile hydrochloride] | 40.6% | 6.51 | 6.38 | –
FC1CCN(c2nc(Cc3ccccc3)nc3c2CCNCC3)C1 (stereo not drawn) [Example 43, 2-benzyl-4-(3-fluoropyrrolidin-1-yl)-6,7,8,9-tetrahydro-5H-pyrimido[4,5-d]azepine hydrochloride] | 52.6% | 6.72 | 7.21 | –

Further lines, results first:

Emax [1, 3] | pEC50 [1] | pKi [2] | Emax % ([1]; efficacy, percentage of mean maximal response to 10 μM 5-HT) | SMILES
36.3% | 6.46 | 7.28 | – | c1ccc(Cc2nc3c(c(NCC4CCCO4)n2)CCNCC3)cc1 (stereo not drawn) [Example 19, 2-benzyl-N-(tetrahydrofuran-2-ylmethyl)-6,7,8,9-tetrahydro-5H-pyrimidol[4,5-d]azepin-4-amine hydrochloride]
72.6% | 6.80 | 6.97 | – | OCCNc1nc(Cc2ccccc2)nc2c1CCNCC2 [Example 23, 2-[(2-benzyl-6,7,8,9-tetrahydro-5H-pyrimido[4,5-d]azepin-4-yl)amino]ethanol hydrochloride]
69.9% | 6.92 | 7.04 | – | CC(C)[C@@H](CO)Nc1nc(Cc2ccccc2)nc2c1CCNCC2 [Example 24, (2S)-2-[(2-benzyl-6,7,8,9-tetrahydro-5H-pyrimido[4,5-d]azepin-4-yl)amino]-3-methylbutan-1-ol hydrochloride]
35% | 7.24 | 7.60 | – | c1ccc(Cc2nc3c(c(NCCn4cccn4)n2)CCNCC3)cc1 [Example 27, 2-benzyl-N-[2-(1H-pyrazol-1-yl)ethyl]-6,7,8,9-tetrahydro-5H-pyrimido[4,5-d]azepin-4-amine hydrochloride]
58.5% | 6.37 | 6.90 | – | CC(CO)Nc1nc(Cc2ccccc2)nc2c1CCNCC2 (stereo not drawn) [Example 33, 2-[(2-benzyl-6,7,8,9-tetrahydro-5H-pyrimido[4,5-d]azepin-4-yl)amino]propan-1-ol hydrochloride]
30.6% | 6.29 | 6.16 | – | c1ccc(Cc2nc3c(c(NC4CCOC4)n2)CCNCC3)cc1 (stereo not drawn) [Example 39, 2-benzyl-N-(tetrahydrofuran-3-yl)-6,7,8,9-tetrahydro-5H-pyrimido[4,5-d]azepin-4-amine hydrochloride]
74.7% | 7.24 | 7.06 | – | OC1(CNc2nc(Cc3ccccc3)nc3c2CCNCC3)CCC1 [Example 41, 1-{[(2-benzyl-6,7,8,9-tetrahydro-5H-pyrimido[4,5-d]azepin-4-yl)amino]methyl}cyclobutanol hydrochloride]
75.4% | 7.17 | 6.99 | – | OCC1CCN(c2nc(Cc3ccccc3)nc3c2CCNCC3)C1 (stereo not drawn) [Example 42, [1-(2-benzyl-6,7,8,9-tetrahydro-5H-pyrimido[4,5-d]azepin-4-yl)pyrrolidin-3-yl]methanol hydrochloride]
